Several values for one entry are separate records, joined by “and”; a condition that tells them apart may be missing. Equal entries are not always repeated. Marks after values point to notes of the source that are not given here.
How the values were obtained:
[1] = In-vivo experiment with WAX column, constituents in blood; set-up: species or system rat; conditions: 7.5% lavender oil patch on abdomen; split injection
From the text: Male Sprague-Dawley rats, weighing 300-350 g, were used in the studies (Harlan, Rehovot, Israel). The experimental protocols were approved by the Hebrew University of Jerusalem Committee on the Use and Care of Animals. Rats were maintained under specified-pathogen-free (SPF) conditions and were allowed to acclimate to the environment for at least 7 days before their use in the study. Rats were anesthetized and the fur on their stomach shaved prior to exposure. Gum karaya patches with and without lavender essential oil were applied to the rat's stomach skin. Each rat was housed in an individual cage in order to prevent oral contamination of the essential oil by one rat eating another's patch. Blood samples (0.5 ml) were taken at 0, 12, 24, 36, 48 and 60 h from a nick at the tip of tail to determine contents of essential-oil components. Rats were restrained and the tail was gently massaged to facilitate blood collection. Blood samples were collected in vials containing 0.1 ml heparin (100 kU, Sigma). A 10-μl volume of aqueous linalyl isovalerate stock solution was added as an internal standard to each blood sample and samples were stored at −80° C. […] Urine samples were similarly analyzed by gas chromatography (GC). […]
Patches that included lavender essential oil were adhered to the abdomen skin for 60 h. […] Between 12 and 36 h, a similar, non-significant change in levels was detected. […]

[2] = Ex-vivo transfer of essential-oil constituents through the skin in Franz diffusion cells; format: in vitro ADME, rat; conditions: for Accumulated concentration transferred through the skin: from gum karaya-Lavandula angustifolia essential oil patch (7.5% oil); for Accumulated concentration diffused through the skin: mixture of Lavandula angustifolia essential oil and almond oil rubbed on the skin
Description: Ex-vivo release studies were performed in Franz diffusion cells (FCs) (PermeGear, Hellertown, Pa.). Stomach skin pieces (1.2 cm×1.2 cm) from a male rat, which were stored in the freezer for 1 month, were thawed at room temperature and placed in glass FCs. The surface area for absorption was 0.64 cm2. The FCs were thermoregulated with a water jacket at 32° C. The 4.5-ml volume of the receptor chamber of the FC was filled with a receptor solution containing 5% (w/v) bovine serum albumin (BSA) diluted with phosphate buffer pH 7.4. […] The receptor solution was continuously agitated with a magnetic stirrer. During the experiments, the donor compartments and sampling arms were sealed to prevent evaporation. The fluid in the receptor chamber was removed after different periods of time (0, 6, 12, 24, 36 and 48 h) and replaced with fresh phosphate buffer solution. Samples were stored at 4° C. after sampling, prior to analysis. Samples were analyzed in a gas chromatograph (Agilent Technologies, Santa Clara, Calif.) with a WAX 30 m×0.32 mm×0.25 μm (Agilent) column.
Transdermal delivery of essential-oil components through rat skin from both lavender essential oil, which includes a high proportion of terpenoids, and Valencia orange essential oil, which includes a considerable amount of terpene, entrapped within gum-karaya-based patches, was examined. In addition to the regular patch adhered to the skin to be tested for essential-oil delivery by the traditional FCs and by in vivo tests (detailed below), another experiment was performed in which the skin was smeared with an almond-essential oil mixture, in order to partially imitate the situation in which the skin is massaged in an aromatherapy session. All experiments were conducted at ambient temperature and the inclusion of the essential oil as part of the almond oil-essential oil mixture (for the massage-like simulation) was equal in quantity and proportion to the inclusion of essential oil within the patch.

[3] = Preliminary in-vivo experiment, constituents in blood (GC, WAX column); set-up: species or system rat

Structure (SMILES) | % diffused (of initial amount of entrapped essential oil) ([2]; Almond-lavandula mixture, 0 h) | % diffused (of initial amount of entrapped essential oil) ([2]; Almond-lavandula mixture, 6 h) | % diffused (of initial amount of entrapped essential oil) ([2]; Almond-lavandula mixture, 12 h) | % diffused (of initial amount of entrapped essential oil) ([2]; Almond-lavandula mixture, 24 h) | % diffused (of initial amount of entrapped essential oil) ([2]; Lavandula patch, 0 h) | % diffused (of initial amount of entrapped essential oil) ([2]; Lavandula patch, 6 h) | % diffused (of initial amount of entrapped essential oil) ([2]; Lavandula patch, 12 h) | Accumulated concentration transferred through the skin ([2]; 6 h) | Accumulated concentration transferred through the skin ([2]; 12 h) | Accumulated concentration transferred through the skin ([2]; 24 h) | Accumulated concentration diffused through the skin ([2]; 6 h) | Accumulated concentration diffused through the skin ([2]; 12 h) | Accumulated concentration diffused through the skin ([2]; 24 h) | also measured
C=CC(C)(O)CCC=C(C)C (stereo not shown) [Linalool] | 0.00^a % | 1.29 ± 1.53^a % | 2.01 ± 2.09^a % | 3.93% and 3.93 ± 0.01^a % | 0.00^a % | 0.73 ± 0.16^b % | 1.53 ± 0.03^c % | 16.49 ± 2.81^a mg/L | 34.46 ± 1.20^b mg/L | 61.64 ± 3.83^c mg/L | 31.07 ± 36.72^a mg L^−1 | 48.34 ± 50.41^a mg L^−1 | 94.78 ± 0.19^a mg L^−1 | Level in blood after 60 h [1]: no traces; % diffused (of initial amount of entrapped essential oil) ([2]; Lavandula patch, 24 h): 2.74 ± 0.31^d %; Calculated steady-state flux ([2]; rubbing in a mixture with almond oil): 0.027 mg.cm^−2 h^−1; Calculated steady-state flux ([2]; transferred from a lavender essential oil patch): 0.018 mg.cm^2 h^−1; Highest concentration in blood ([3]; 30 min after rubbing the skin with almond-lavender essential oil mixture): 0.32 mg/L; Highest concentration in blood ([3]; 36 h after a 7.5% lavender essential oil patch was adhered to the abdomen): 0.48 mg/L; Time for which the constituent was evident in the blood ([3]; after rubbing the skin with the almond-essential oil mixture): 80 min
C=CC(C)(CCC=C(C)C)OC(C)=O (stereo not shown) [Linalyl acetate] | 0.00^a % | 0.107 ± 0.150^a % | 0.153 ± 0.216^a % | 0.246 ± 0.344^a % | 0.00^a % | 0.008 ± 0.011^a % | 0.013 ± 0.018^a % | 0.15 ± 0.14^a mg/L | 0.26 ± 0.25^a mg/L | 0.37 ± 0.01^a mg/L | 2.30 ± 2.24^a mg L^−1 | 3.33 ± 3.23^a mg L^−1 | 5.62 ± 4.10^a mg L^−1 | Detection in blood ([3]; after rubbing with the almond-lavender oil mixture (massage)): No linalyl acetate was detected

From patent publication US20110300198A1, “HYDROCOLLOID - ESSENTIAL OIL PATCHES” (priority 2010, published 2011)
